Consider one substance from patent publication US20240158447A1, “PEPTIDES FOR USE IN THE TREATMENT OR PREVENTION OF MYOCARDIAL DAMAGE” (THE UNIVERSITY OF WESTERN AUSTRALIA, priority 2020, published 2024).

In assay [1] the test system is cTnI.2 wt myocytes. Nature of the assay: Mitochondrial membrane potential (JC-1) response to BayK(−), wt myocytes (Example 10). The assay is classed as cell-based, mouse. The conditions noted are these: 0.5 μM peptide, calcium-free, FIG. 11A. On the procedure:
In this experiment wt myocytes were pre-exposed to 0.1, 0.5 or 1 μM for 20 min and assessed changes in flavoprotein oxidation and ψm.
Measurement of mitochondrial membrane potential: The fluorescent indicator 5,5′,6,6′-tetrachloro1,1′,3,3′-tetraethylbenzimidazolylcarbocyanine iodide (JC-1) was used to measure mitochondrial membrane potential (ψm) as previously described (Viola H M, Arthur P G, Hool L C. Transient exposure to hydrogen peroxide causes an increase in mitochondria-derived superoxide as a result of sustained alteration in L-type Ca2+ channel function in the absence of apoptosis in ventricular myocytes. Circ Res. 2007; 100(7):1036-44). […] Images were acquired at 2 min intervals with 50 ms exposure. Metamorph 6.3 (Version 7.10.3) was used to quantify the signal by manually tracing myocytes. An equivalent region not containing cells was used as background and was subtracted. The 580 nm/535 nm ratiometric fluorescence values recorded over 6 min before and 4 min after addition of drugs were averaged and alterations in fluorescent ratios reported as the percentage increase from the basal average. […] In addition, individual 580 and 535 signals were assessed in each experiment to determine whether the fluorescent indicator was accurately measuring ψm. […]
Based on results obtained from in vitro assessment of flavoprotein oxidation, the effect of 0.5 μM AID-TAT variants on changes in mitochondrial membrane potential (ψm) was further explored. Experiments were performed using JC-1 fluorescence under calcium-free conditions as previously described (Viola H, Johnstone V, Cserne Szappanos H, Richman T, Tsoutsman T, Filipovska A, et al. The L-type Ca(2+) channel facilitates abnormal metabolic activity in the cTnI-G2035 mouse model of hypertrophic cardiomyopathy. J Physiol. 2016; 594(14):4051-70; Viola H M, Shah A A, Johnstone V P A, Cserne Szappanos H, Hodson M P, Hool L C. Characterization and validation of a preventative therapy for hypertrophic cardiomyopathy in a murine model of the disease. Proc Natl Acad Sci U S A. 2020; 117(37):23113-24). […]

In assay [2] the test system is cTnI-G203S mice. Nature of the assay: Echocardiography of pre-cardiomyopathic cTnI-G203S mice (Example 15). The note with it: 5 μM, 3×/wk/5 wk, FIG. 15. The class given is in vivo, mouse. The text has this: Twenty to thirty week-old male mice expressing the human cTnI gene encoding the human disease-causing cTnI-G203S were generated and used for the in vivo studies. By way of background, the mice develop hallmark features of HCM between 20 and 25 weeks (Viola H, Johnstone V, Cserne Szappanos H, Richman T, Tsoutsman T, Filipovska A, et al. The L-type Ca(2+) channel facilitates abnormal metabolic activity in the cTnI-G2035 mouse model of hypertrophic cardiomyopathy. J Physiol. 2016; 594(14):4051-70; Viola H M, Shah A A, Johnstone V P A, Cserne Szappanos H, Hodson M P, Hool L C. Characterization and validation of a preventative therapy for hypertrophic cardiomyopathy in a murine model of the disease. Proc Nati Aced Sci U S A. 2020; 117(37):23113-24; Tsoutsman T, Chung J, Doolan A, Nguyen L, Williams IA, Tu E, et al. Molecular insights from a novel cardiac troponin I mouse model of familial hypertrophic cardiomyopathy. J Mol Cell Cardiol. 2006; 41(4):623-32). Age-matched male mice expressing the normal human troponin I gene were used as controls and indicated as wild-type (wt). For in vivo studies, 20-week old cTnI-G203S mice were treated with 10 μM AID(S)-TAT (2 mg/kg) or 5 μM AID-TAT mutant peptides via intraperitoneal injection, 3 times per week for a total duration of 5 weeks. The peptide was dissolved in phosphate buffered saline solution (PBS), and the total amount of the 10 μM AID-TAT mutant peptides administered over 5 weeks was 0.9 mg. The total amount of the 5 μM AID-TAT mutant peptides administered over 5 weeks was 0.45 mg Male mice were utilized to eliminate potential differences in responses due to gender. The number of mice used is indicated by N.
Echocardiographic studies to measure left ventricular function were performed on mice under light methoxyflurane anaesthesia with the use of an i13L probe on a Vivid™ 7 IQ ultrasound system (GE Healthcare, Little Chalfont, UK) as previously described (Viola H, Johnstone V, Cserne Szappanos H, Richman T, Tsoutsman T, Filipovska A, et al. The L-type Ca(2+) channel facilitates abnormal metabolic activity in the cTnI-G2035 mouse model of hypertrophic cardiomyopathy. J Physiol. 2016; 594(14):4051-70; Viola H M, Shah A A, Johnstone V P A, Cserne Szappanos H, Hodson M P, Hool L C. Characterization and validation of a preventative therapy for hypertrophic cardiomyopathy in a murine model of the disease. Proc Natl Acad Sci U S A. 2020; 117(37):23113-24; Viola H M, Johnstone V P A, Cserne Szappanos H, Richman T R, Tsoutsman T, Filipovska A, et al. The Role of the L-Type Ca(2+) Channel in Altered Metabolic Activity in a Murine Model of Hypertrophic Cardiomyopathy. JACC Basic Transl Sci. 2016; 1(1-2):61-72). Each N represents the average of quantitative measurements from wt or cTnI-G203S mice for each treatment group.

“Also recorded” adds a separate entry of the source.

For “AIDP7-TAT: QQQEEDLKGYLDWITQAE with TAT sequence”, the “BayK(−) induced increase in ψm (JC-1 fluorescence)” value in assay [1] is recorded as “significantly attenuated the response”. Also, in assay [2], the IVDS entry is “trend toward increased LVEDd and LVEDs, and decreased IVDS”. Moreover, in assay [2] (versus AID(S)-TAT), the “EF, ejection fraction” value is given as “effectively restored”; the “FS, fractional shortening” value is recorded as “effectively restored”; the “IVSs, intraventricular septum in systole” value is “significant decrease; also recorded: effectively restored”; the “LVEDd, left ventricular end diameter during diastole” value is “trend toward increased LVEDd and LVEDs, and decreased IVDS”. Moreover, in assay [2] (versus AID(S)-TAT), the “LVEDs, left ventricular end diameter during systole” value is “trend toward increased LVEDd and LVEDs, and decreased IVDS”; the “LVPWd, left ventricular posterior wall in diastole” value is reported as “effectively restored”; the “LVPWs, left ventricular posterior wall in systole” value was “effectively restored; also recorded: significant decrease”.
